Results published in publication PMC8080589, “Modulation of αVβ6 integrin in osteoarthritis-related synovitis and the interaction with VTN(381–397 a.a.) competing for TGF-β1 activation” (Experimental & Molecular Medicine, 2021).

Assays:
α-SMA in human FLSs = test: Expression of α-SMA in FLSs by western blot; format: cell-based; conditions: TGF-β1 10 ng/mL, 7 days, OA FLSs (n = 5), western blot normalized to Hsp90
Experimental: Finally, for analysis of the expression of α-SMA, FLSs (n = 5) were stimulated with VTN(381–397 a.a.) (10, 25, 50, 100 ng/mL) with or without TGF-β1 (10 ng/mL) for 7 days.
The expression of αV and β6 subunits and α-SMA in FLSs was evaluated by western blot analysis. Cells were scraped from plates and lysed with lysis buffer (25 mM HEPES, 150 mM NaCl, 0.5% Triton, 10% glycerol, 1 mM dithiothreitol) containing phosphatase inhibitors (25 mM β-glycerophosphate, 1 mM Na3VO4, and 1 mM NaF) and complete protease inhibitor mixture (Roche Applied Science; Penzberg, Germany). Total proteins were separated by 10% SDS–PAGE gels (12% for α-SMA) and transferred onto PVDF membranes. The membranes were then incubated with anti-αV polyclonal antibody (1:250 dilution) (Cell Signaling Technology; Boston, MA, USA), anti-β6 polyclonal antibody (1:1000 dilution) (Abcam; Cambridge, UK) or anti-α-SMA monoclonal antibody (Agilent; Santa Clara, CA, USA; 1:1000 dilution). […] Data were analyzed by paired Wilcoxon test; a p-value < 0.05 was considered statistically significant. […]
FLSs were stimulated with VTN(381–397 a.a.) with or without TGF-β1 to evaluate the effect on the expression of the fibrotic marker α-SMA (Fig. 5). […] The results in Fig. 5 are expressed as the ratio of the normalized optical density vs. the control and are shown as the mean (±SEM).

[1] = tested on: β6 integrin subunit expression, human fibroblast-like synoviocytes (FLSs); test: β6 subunit expression in FLSs by western blot after stimulation; format: cell-based; conditions: TGF-β1 10 ng/mL, 3 or 7 days, n = 12, OA FLSs, western blot normalized to GAPDH, paired Wilcoxon, p-value ≤ 0.01
Experimental: Synovial membranes were obtained from 22 OA patients (14 females, 8 males; mean age 69.8 ± 9.6 years, BMI 30.9 ± 6.8) during knee replacement, and primary synovial fibroblasts were isolated as explained previously. The research ethics committee of CHU de Liege (Belgium) approved the study, and the patient gave informed consent to allow research procedures on samples. Human fibroblast-like synoviocytes (FLSs) were then cultured in DMEM supplemented with 10% FBS, 1% Pen/Strep, and 1% L-glutamine (all from Lonza; Basel, Switzerland) at 37 °C in an atmosphere of 5% CO2. In a plate, 5 × 10^4 FLSs were stimulated with different compounds to analyze the modulation of αVβ6: (i) TGF-β1, TNF-α, IL-1β, or IL-6 were used for 3 or 7 days at a concentration of 10 ng/mL; (ii) among the danger-associated molecular patterns, high-mobility group box 1 (HMGB1) was tested at 10, 50, and 100 ng/mL for 3 days, while S100A9 and S100A12 were tested at 100 and 200 ng/mL for 3 days or 24 h; (iii) advanced glycation end product (AGE-BSA) was tested at 50, 100, and 200 μg/mL for 3 days or 24 h; (iv) prednisolone and dexamethasone were used at 1 μM for 3 or 7 days; and (v) menadione or H2O2 was used to induce oxidative stress at 25–50–100 μM (3 h) and 100–200–400 μM (2 h), respectively, without FBS in the medium.
The expression of αV and β6 subunits and α-SMA in FLSs was evaluated by western blot analysis. Cells were scraped from plates and lysed with lysis buffer (25 mM HEPES, 150 mM NaCl, 0.5% Triton, 10% glycerol, 1 mM dithiothreitol) containing phosphatase inhibitors (25 mM β-glycerophosphate, 1 mM Na3VO4, and 1 mM NaF) and complete protease inhibitor mixture (Roche Applied Science; Penzberg, Germany). Total proteins were separated by 10% SDS–PAGE gels (12% for α-SMA) and transferred onto PVDF membranes. The membranes were then incubated with anti-αV polyclonal antibody (1:250 dilution) (Cell Signaling Technology; Boston, MA, USA), anti-β6 polyclonal antibody (1:1000 dilution) (Abcam; Cambridge, UK) or anti-α-SMA monoclonal antibody (Agilent; Santa Clara, CA, USA; 1:1000 dilution). HRP-conjugated anti-rabbit antibody (1:1000 dilution) (Cell Signaling Technology) was used as the secondary antibody. Immunoblots were developed using the ECL chemiluminescent detection system. Rabbit anti-glyceraldehyde 3-phosphate dehydrogenase (GAPDH) (Merck) or rabbit anti-heat shock protein 90 (Hsp90; Santa Cruz) was used as loading controls at a dilution of 1:10,000 or 1:200, respectively. Values of optical intensity were normalized to GAPDH or Hsp90 levels. Data were analyzed by paired Wilcoxon test; a p-value < 0.05 was considered statistically significant. Statistical analysis was performed with GraphPad Prism 6 software (San Diego, CA, USA).
IL-1β 10 ng/mL 3 days IL-6 10 ng/mL 3 daysIL-6 Prednisolone 1µM 3 daysPrednisolone
0.0 control IL-6 0.0 control PRE
Dexamethasone 1µM 3 daysDexamethasone TNF-α 10 ng/mL 3 days AGE 50 µg/mL 24 h

[2] = tested on: latent TGF-β1 activation (αVβ6 on human FLSs; PAI-1 promoter-luciferase in TMLCs); test: TGF-β luciferase bioassay, TMLC + FLS coculture, activation of latent TGF-β1; format: cell-based, human FLSs; mink lung epithelial reporter cells; conditions: peptide 50 ng/mL, 200 ng/mL latent TGF-β1, TMLC + FLS coculture, 16 h, n = 6 donors in triplicate, paired Wilcoxon
Experimental: Transformed mink lung epithelial cells (TMLCs), a generous gift from Prof. DB Rifkin (Department of Cell Biology, NYU School of Medicine, New York, NY), were used to test TGF-β1 functionality. TMLCs were cultured in DMEM supplemented with 10% FBS, 1% Pen/Strep, and 1 mg/mL G418 Sulfate (Biowest; Riverside, MO, USA). For coculture, TMLCs were plated in 96-well plates at a density of 10^4 cells per well, and fibroblasts were added at a density of 1.5 × 10^4 cells per well, with a final volume of 100 μL. Cells were allowed to attach at 37 °C and 5% CO2. After 6 h, the medium was removed and replaced by the different treatments diluted in medium with 0.1% BSA without FBS (final volume of 100 μL).
For function-blocking experiments, cells were incubated with anti-αVβ6 antibody (clone 10D5; Merck) or with the isotype control IgG2a kappa (clone eBM2a; Thermo Fisher Scientific) for 20 min at room temperature at a concentration of 50 μg/mL in medium containing 1 mM MgCl2/0.1% BSA before adding other compounds. […] Luciferase activity was assessed by plate-reading luminometers with an injector (Victor™ X3; PerkinElmer Waltham, MA, USA) adding 100 µl of luciferase assay reagent (Promega) per well. […]
The data are expressed as relative luciferase activity (RLA). RLA is the measured luciferase activity of the coculture divided by the activity of the related control alone under the same conditions. […]

Row | Substance | effect on α-SMA (α-SMA in human FLSs) | effect on β6 subunit expression [1] | effect on latent TGF-β1 activation (luciferase signal) [2]
1 | TGF-β1: profibrotic mediator | upregulated the content of the fibrotic marker α-SMA | significantly increased β6 expression | 
2 | hepcidin: used as a control peptide |  |  | No significant variation was observed
